# Publication PMC10970644, “Molecular Pharmacology of Gelsemium Alkaloids on Inhibitory Receptors” (International Journal of Molecular Sciences, 2024)
# Key:
# chimeric α1α2 GlyR = target: T1, chimeric α1α2 GlyR (Rattus norvegicus, UniProt P07727+P22771, F345L/G282A/I268V/L342F/S324A); type: cell-based
# T1 construct: Relevance of the ECD for the subunit-specific actions of gelsemine on α1GlyRs; expressed in transfected cells; host or cells: HEK293 (ATCC CRL-1573)
# T1 sequence (P07727+P22771 with tags, fused parts or gaps P07727:I268V/P07727:G282A/P07727:S324A/P07727:L342F/P07727:F345L): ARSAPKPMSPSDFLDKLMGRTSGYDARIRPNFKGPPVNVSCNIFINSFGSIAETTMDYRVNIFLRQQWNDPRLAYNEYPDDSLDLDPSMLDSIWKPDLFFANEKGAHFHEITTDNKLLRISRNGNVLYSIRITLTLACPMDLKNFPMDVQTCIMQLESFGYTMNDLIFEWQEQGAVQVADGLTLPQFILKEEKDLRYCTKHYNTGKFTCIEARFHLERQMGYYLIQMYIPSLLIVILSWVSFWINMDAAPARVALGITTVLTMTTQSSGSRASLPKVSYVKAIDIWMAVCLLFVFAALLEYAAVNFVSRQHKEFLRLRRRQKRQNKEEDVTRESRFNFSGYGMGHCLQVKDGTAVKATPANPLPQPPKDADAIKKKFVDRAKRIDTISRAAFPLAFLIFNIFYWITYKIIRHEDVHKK
# Description: (§1) The cells were transfected with plasmids encoding the following proteins: (i). rat GlyR α (1, 2, 3) subunits alone or combined with rat β subunits (Uniprot Accession Numbers: Q546L7, P22771, P20236, P20781); and (ii). rat GABAAR α1 combined with rat β2 and γ2 subunits (Uniprot Accession Numbers: P62813, P63138, P18508). The EGFP expression was used as a marker of successful protein expression. The transfection was performed using Lipofectamine 2000 (Invitrogen, ThermoFisher, Carlsbad, CA, USA) using the fabricant protocol. The plasmids used to express GlyRs and GABAARs have been previously described. To track the successful expression of GlyR β subunits and the GABAA γ2 or β2 subunit, these proteins were subcloned in the pIRES2-EGFP vector. The transfection ratio to obtain β-containing GlyRs was 1:5 of α:β, while the expression of γ2-containing GABAA receptors was 1:2:5 of α:β:γ2 [14, 15]. Chimeric GlyRs were described in a previous report. Site directed mutagenesis was performed by Charm Gene Science Mutagenex LLC. (Cumming, GA, USA). All the constructs were checked by full-length sequencing (SNPSaurus, Eugene, OR, USA).
# (§2) In brief, patch electrodes (3–4 MΩ) were pulled from borosilicate glasses in a PC-100 puller (Narishige, Tokyo, Japan); then, they were filled with an intracellular solution, which contained (in mM) 120 CsCl, 8 EGTA, 10 HEPES (pH 7.4), 4 MgCl2, 0.5 GTP, and 2 ATP. The extracellular solution contained (in mM) 140 NaCl, 5.4 KCl, 2.0 CaCl2, 1.0 MgCl2, 10 HEPES (pH 7.4), and 10 glucose. Whole-cell patch-clamp recordings were performed at −60 mV with an Axoclamp 200B (Molecular Devices, Sunnyvale, CA, USA) or with HEKA EPC-10 (HEKA Elektronik GmbH, Reutlingen, Germany) amplifiers. […] Brief (3–5 s) pulses of agonist together with alkaloids were applied to cells. Stock solutions of the alkaloids were prepared in high purity distilled water. Aliquots of these stock solutions were diluted in reservoirs containing extracellular solution. […] The concentration–response curve parameters for the alkaloid inhibition (IC50, nH, and the maximal current inhibition) were obtained from the fitted curve of normalized concentration–response data points to the equation Iagonist = Imax (agonist)nH/((agonist)nH + (EC50)nH). The IC50 curves are best-fit mean ± SE from pooled data. […] The concentration of agonist corresponds to the sub-saturating agonist concentration used to obtain the IC50 for each alkaloid on a given GlyR subtype.
# [1] = in vivo studies; cited from earlier work
# α2 GlyR = target: T2, α2 GlyR (Rattus norvegicus, UniProt P22771); test: cell-based; type: cell-based
# T2 construct: The cells were transfected with plasmids encoding the following proteins; expressed in transfected cells; host or cells: HEK293 (ATCC CRL-1573)
# T2 sequence (P22771 28-452): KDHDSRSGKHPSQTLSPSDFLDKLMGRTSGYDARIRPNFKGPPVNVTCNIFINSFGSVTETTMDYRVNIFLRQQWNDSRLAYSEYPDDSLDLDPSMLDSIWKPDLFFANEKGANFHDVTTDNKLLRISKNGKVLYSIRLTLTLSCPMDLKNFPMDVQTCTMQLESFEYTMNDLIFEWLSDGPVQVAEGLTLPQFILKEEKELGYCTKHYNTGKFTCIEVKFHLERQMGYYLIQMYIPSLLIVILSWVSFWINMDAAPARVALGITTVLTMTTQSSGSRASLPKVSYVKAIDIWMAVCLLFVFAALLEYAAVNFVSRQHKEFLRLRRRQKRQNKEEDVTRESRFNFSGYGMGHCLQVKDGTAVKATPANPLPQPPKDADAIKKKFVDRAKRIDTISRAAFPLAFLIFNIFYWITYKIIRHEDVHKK
# Description: as §1
# In brief, patch electrodes (3–4 MΩ) were pulled from borosilicate glasses in a PC-100 puller (Narishige, Tokyo, Japan); then, they were filled with an intracellular solution, which contained (in mM) 120 CsCl, 8 EGTA, 10 HEPES (pH 7.4), 4 MgCl2, 0.5 GTP, and 2 ATP. The extracellular solution contained (in mM) 140 NaCl, 5.4 KCl, 2.0 CaCl2, 1.0 MgCl2, 10 HEPES (pH 7.4), and 10 glucose. Whole-cell patch-clamp recordings were performed at −60 mV with an Axoclamp 200B (Molecular Devices, Sunnyvale, CA, USA) or with HEKA EPC-10 (HEKA Elektronik GmbH, Reutlingen, Germany) amplifiers. […] Brief (3–5 s) pulses of agonist together with alkaloids were applied to cells. Stock solutions of the alkaloids were prepared in high purity distilled water. Aliquots of these stock solutions were diluted in reservoirs containing extracellular solution. […] The concentration–response curve parameters for the alkaloid inhibition (IC50, nH, and the maximal current inhibition) were obtained from the fitted curve of normalized concentration–response data points to the equation Iagonist = Imax (agonist)nH/((agonist)nH + (EC50)nH). The IC50 curves are best-fit mean ± SE from pooled data. […] The inhibition constant (Ki) was calculated using the Cheng–Prusoff equation (Ki = IC50/((2 + ([Agonist]/EC50)^nH)^1/nH − 1). The concentration of agonist corresponds to the sub-saturating agonist concentration used to obtain the IC50 for each alkaloid on a given GlyR subtype.
# α3β GlyR = target: T3, α3β GlyR (Rattus norvegicus, UniProt P20781+P24524); test: cell-based; type: cell-based
# T3 construct: The cells were transfected with plasmids encoding the following proteins; expressed in transfected cells; host or cells: HEK293 (ATCC CRL-1573)
# Description: as §1, §2
# [2] = Hill coefficient of inhibition curve
# [3] = calculated using the Cheng–Prussof equation
# T3 sequence (P24524 34-464): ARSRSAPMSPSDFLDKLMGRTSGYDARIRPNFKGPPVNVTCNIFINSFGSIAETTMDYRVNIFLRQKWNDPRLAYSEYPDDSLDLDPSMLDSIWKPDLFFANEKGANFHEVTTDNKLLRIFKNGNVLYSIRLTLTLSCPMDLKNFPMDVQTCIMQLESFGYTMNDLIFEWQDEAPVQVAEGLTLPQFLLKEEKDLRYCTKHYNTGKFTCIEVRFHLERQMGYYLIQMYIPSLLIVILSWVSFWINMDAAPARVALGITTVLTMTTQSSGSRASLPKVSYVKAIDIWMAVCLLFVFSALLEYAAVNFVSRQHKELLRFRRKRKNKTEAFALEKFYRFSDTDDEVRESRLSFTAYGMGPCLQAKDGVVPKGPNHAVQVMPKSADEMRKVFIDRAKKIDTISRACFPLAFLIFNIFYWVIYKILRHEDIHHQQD
# T3 sequence (P20781 23-496): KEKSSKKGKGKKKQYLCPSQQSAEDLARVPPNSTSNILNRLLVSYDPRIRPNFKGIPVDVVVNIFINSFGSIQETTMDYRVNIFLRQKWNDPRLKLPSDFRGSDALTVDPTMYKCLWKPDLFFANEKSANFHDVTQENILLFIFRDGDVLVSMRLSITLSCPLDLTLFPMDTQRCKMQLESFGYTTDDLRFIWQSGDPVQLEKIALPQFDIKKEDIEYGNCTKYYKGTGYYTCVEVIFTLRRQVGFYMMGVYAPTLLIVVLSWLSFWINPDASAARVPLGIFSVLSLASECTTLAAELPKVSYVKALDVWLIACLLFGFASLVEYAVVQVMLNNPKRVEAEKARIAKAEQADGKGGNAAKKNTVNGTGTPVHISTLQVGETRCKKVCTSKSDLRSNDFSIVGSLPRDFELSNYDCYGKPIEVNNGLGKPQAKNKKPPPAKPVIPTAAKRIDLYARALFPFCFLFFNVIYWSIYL
SMILES,"effect on glycine-evoked currents (in words) (chimeric α1α2 GlyR; 10 μM gelsemine, 35 μM glycine)",LD50 [1],"effect on glycine-evoked currents (in words) (α2 GlyR; wild-type, 50 μM gelsemine, 60 μM glycine)",EC50 (α3β GlyR; read-out: EC50 of agonist),EC50 (chimeric α1α2 GlyR; read-out: EC50 of agonist),EC50 (α2 GlyR; read-out: EC50 of agonist),IC50 (α3β GlyR),nH (α3β GlyR; [2]),Ki (α3β GlyR; [3]),IC50 (α2 GlyR),nH (α2 GlyR; [2]),Ki (α2 GlyR; [3])
C=C[C@]12CN(C)[C@@H]3[C@H]4CO[C@H](C[C@H]41)[C@]1(C(=O)Nc4ccccc41)[C@@H]32 [gelsemine],potentiated,higher than 50 mg/kg,inhibited,,,,,,,,,
"NCC(=O)O [glycine, reference compound]",,,,243 ± 13 µM,55 ± 3 µM,91 ± 6 µM,,,,,,
C=C[C@@]12CN(C)[C@H]3C[C@]14C(=Nc1ccccc14)[C@H]1C[C@@H]2[C@@H]3CO1 [koumine],,higher than 50 mg/kg,,,,,20.2 ± 7.7 µM,0.9 ± 0.3,54.1 ± 20 µM,11.2 ± 2.1 µM,1.0 ± 0.2,44.2 ± 4.6 µM
